Common to all, as to test: DTP human tumour cell line panel, 48 h
The test system of assay [1] is DU-145 prostate.
Assay [2] relates to BT-549 breast.
In assay [3] the test system is RPMI-8226 leukemia.
The test system of assay [4] is 786-0 renal.
The test system of assay [5] is HCC-2998 colon.
Assay [6] concerns KM12 colon.
Assay [7] concerns OVCAR-5 ovarian.
For assay [8], the system named is NCI-H23 lung.
Assay [9] has as its system HS 578T breast.
Assay [10] has as its system T-47D breast.
The subject of assay [11] is SF-268 CNS.
Assay [12] has as its system A498 renal.
In assay [13] the test system is NCI-H226 lung.
Assay [14] relates to IGROV1 ovarian.

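A five-concentration, 48-hour dose response in 96-well plates underlies each endpoint, interpolated linearly between surrounding concentrations. The concentration for full growth arrest is given as TGI.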

Our source for the TGI values is PubChem BioAssay (NCI).

One may read the TGI as the concentration at which net growth stops. Read a high TGI as lower sensitivity of the cells.

With `COc1cc2c(cc1C)NC(=O)/C2=C\c1cccnc1`, the TGI is 54.3 µM in [1]; 96.9 µM in assay [2]; 55.5 µM in assay [3]; greater than 100 µM in assay [4]; 21.6 µM in assay [5]; 35.6 µM in [6]. Moreover, the TGI in [7] came to 31.8 µM; in [8], 23.3 µM; in [9] it was 96.6 µM; in assay [10] it was 11.7 µM; in assay [11], 50 µM; in assay [12] it was 26.1 µM.
Take `CSC1=C(C)S/C(=C\c2ccc(/C=C3\SC(C)=C(SC)S3)cc2)S1`: the TGI in [1], in assay [2], in [4], in [5], in assay [6] and in assay [13] was greater than 100 µM each time. In addition, the TGI in assay [14], in [7], in [8], in assay [9], in assay [10] and in assay [11] was greater than 100 µM each time. Further, the total growth inhibition concentration (TGI) in assay [12] was greater than 100 µM.
Regarding `CCOC(=O)Nn1cnnc1Cc1ccccc1`, the TGI in assay [2], in [3], in [4], in assay [5], in assay [6] and in assay [13] was greater than 100 µM in each case. For the same compound, the total growth inhibition concentration (TGI) in assay [14] was greater than 100 µM; in [7], greater than 100 µM; in [8], greater than 100 µM; in assay [9] it was 81.4 µM; in assay [10], greater than 100 µM; in [11], greater than 100 µM. Further, the TGI in assay [12] was greater than 100 µM.
As for `C[C@@H]1C(=O)O[C@@H]2C[C@@]1(C)[C@@H]1C(=O)C3(O)OC14C2(C)OC(=O)[C@@]4(O)CCC1C3C(O)C=C2CC=CC(=O)[C@@]21C` (some centres undefined), the concentration for total growth inhibition (TGI) in assay [1] was greater than 100 µM; in [3], 61.3 µM; in [4], greater than 100 µM; in assay [5], greater than 100 µM; in assay [6], 71.1 µM; in assay [14] it was greater than 100 µM. The TGI was 67.9 µM in [7], 50.7 µM in assay [9], greater than 100 µM in [10] and greater than 100 µM in [11].
In the case of `N#CCN(Cc1ccccc1)[C@H]1CCC[C@]1(O)/C=C/c1ccc2c(c1)OCO2`, the TGI in assay [1] was greater than 100 µM; in assay [3], 46 µM; in [4] it was 31.4 µM; in assay [5] it was 33.4 µM; in assay [6] it was 45.3 µM; in assay [13], 44.4 µM. The concentration for total growth inhibition (TGI) in assay [14] was 92.2 µM; in assay [7] it was greater than 100 µM; in assay [8], 69.2 µM; in [9] it was 43 µM; in assay [10], 46.4 µM; in [11] it was greater than 100 µM. This compound also showed a TGI in assay [12] greater than 100 µM.
For the compound `CC1CC/C(=C\c2ccc(Cl)cc2)C(=O)/C1=C\c1ccc(Cl)cc1` (centres undefined), the concentration for total growth inhibition (TGI) in [1] was greater than 100 µM; in assay [2], 50.3 µM; in [4], greater than 100 µM; in [6], 41.5 µM; in assay [14], 46.9 µM; in assay [7], 44.6 µM. In addition, the TGI in assay [9] is 93.8 µM; in [10], greater than 100 µM; in assay [11] it was greater than 100 µM; in assay [12], 17.7 µM.
Take `CCCCC1=C(C(=O)N2CCOCC2)C2(OCCO2)C1Cl` (centres undefined): the concentration for total growth inhibition (TGI) in assay [1] was greater than 100 µM; in [4], greater than 100 µM; in assay [6], 41.5 µM; in assay [13], greater than 100 µM; in assay [14], greater than 100 µM; in assay [7] it was 45.5 µM. Moreover, the TGI in [8], in [9], in assay [10], in [11] and in assay [12] was greater than 100 µM each time.
For `O=c1oc2ccccc2cc1-c1nc2ccccc2c(=O)[nH]1`, the total growth inhibition concentration (TGI) in assay [1], in [2], in [3], in assay [4], in [5] and in assay [6] was greater than 100 µM throughout. Besides, the concentration for total growth inhibition (TGI) in assay [13], in [14], in assay [7], in assay [9], in assay [10] and in assay [11] was greater than 100 µM in each case.
In the case of `CC1=NN(c2cccc(Cl)c2)C(=N/c2nc3ccccc3s2)/C1=C\c1ccccc1O`, the TGI in [1] is greater than 100 µM; in assay [3], greater than 100 µM; in assay [4], greater than 100 µM; in assay [5], 45.4 µM; in assay [6], greater than 100 µM; in [13], 87.8 µM. Besides, the concentration for total growth inhibition (TGI) in [14] is greater than 100 µM; in assay [7], greater than 100 µM; in assay [8], 70.1 µM; in [9], 56.5 µM; in assay [10], greater than 100 µM; in assay [11] it was 78.8 µM. Moreover, in assay [12], the TGI was determined as 52.4 µM.
Consider `COC(=O)CC[N+]1([O-])CC1`, for which the TGI in [1], in assay [3], in [4], in assay [5], in assay [6] and in assay [13] was greater than 100 µM in each case. The TGI in [14], in assay [7], in assay [8], in [9], in assay [10] and in assay [11] was greater than 100 µM in each case. The total growth inhibition concentration (TGI) in assay [12] is greater than 100 µM.
For the compound `CN(C(=O)C12C3C4C1C1C2C3C41C(=O)O)C(C)(C)C` (centres undefined), the concentration for total growth inhibition (TGI) in [1], in assay [2], in [4], in assay [5], in assay [6] and in assay [14] was greater than 100 µM in each case. For the same compound, the TGI in assay [7], in [8], in assay [9], in assay [10], in assay [11] and in assay [12] was greater than 100 µM throughout.
Consider `CCCC[P+](CCCC)(CCCC)C(C(=O)OC)C(C(=O)OC)=C1SC(C(=O)OC)=C(C(=O)OC)S1` (centres undefined), for which the TGI in [1], in [2], in assay [3], in assay [4], in [13] and in assay [14] was greater than 100 µM each time. The TGI in assay [7], in assay [8], in assay [9], in [10] and in assay [11] was greater than 100 µM in each case.
Turning to `COc1ccc(OC)c2sc(N3C(=O)/C(=C/c4ccc(N(C)C)cc4)N=C3c3ccccc3)nc12`, the TGI in [1], in [2], in assay [3], in assay [4], in assay [5] and in [6] was greater than 100 µM throughout. The total growth inhibition concentration (TGI) in [14], in assay [7], in assay [9], in assay [10], in assay [11] and in assay [12] was greater than 100 µM in each case.
As for `CCOC(=O)c1nc2cc(F)c(F)cc2nc1NCc1cc(OC)c(OC)c(OC)c1`, the TGI in assay [1], in assay [2], in assay [4], in assay [6], in [14] and in assay [7] was greater than 100 µM throughout. The TGI in assay [8], in [9], in assay [10], in assay [11] and in assay [12] was greater than 100 µM throughout.
As for `COc1nc(N)nc2c1n(C)c[n+]2C`, the concentration for total growth inhibition (TGI) in assay [1], in assay [2], in assay [3], in assay [4], in assay [6] and in [13] was greater than 100 µM throughout. For the same compound, the TGI in [14], in [7], in [8], in assay [9], in assay [10] and in [11] was greater than 100 µM in each case. In assay [12], this compound showed a TGI greater than 100 µM.
For the compound `N#Cc1cccc(Nc2ccccc2SSc2ccccc2Nc2cccc(C#N)c2)c1`, the TGI is greater than 21.5 µM in assay [1]; 11.5 µM in assay [3]; 12 µM in [4]; greater than 21.5 µM in assay [5]; 16.2 µM in assay [6]; 18.3 µM in assay [13]. Also, the TGI is 16.9 µM in assay [14]; greater than 21.5 µM in assay [7]; greater than 21.5 µM in assay [8]; greater than 14.6 µM in [9]; greater than 21.5 µM in assay [10]; greater than 21.5 µM in [11].
Take `NS(=O)(=O)c1ccc(NC(=S)/N=C/c2c(O)c3ccccc3[nH]c2=O)cc1`: the TGI in assay [1], in [2], in assay [3], in [4], in assay [5] and in assay [6] was greater than 100 µM in each case. Besides, the total growth inhibition concentration (TGI) in assay [13], in assay [14], in assay [7], in assay [8], in assay [9] and in [10] was greater than 100 µM each time. Further, the TGI in [11] was greater than 100 µM.
Turning to `N#Cc1c(-c2cccc(Br)c2)cc(-c2ccc(Cl)cc2)nc1N`, the total growth inhibition concentration (TGI) in assay [1] was greater than 100 µM; in assay [2], 99.3 µM; in assay [3], 45.7 µM; in [4], 42.4 µM; in assay [5], 34 µM; in assay [6], 60.4 µM. Also, the TGI in assay [13] was 38.1 µM; in [14], 34.3 µM; in [7], 65.2 µM; in assay [8], 71.7 µM; in assay [9], 43.1 µM; in assay [10], greater than 100 µM. In addition, the TGI in assay [11] was 73.6 µM.
For the compound `Cc1cc(Cl)ccc1NC(=O)/C(Cc1nc2ccc(C(=O)c3ccccc3)cc2[nH]c1=O)=N/NC(=O)c1ccncc1`, the concentration for total growth inhibition (TGI) in [2], in assay [3], in [4], in [5], in [6] and in [13] was greater than 100 µM in each case. Besides, the TGI in assay [14], in [7], in assay [8], in [9], in assay [10] and in [11] was greater than 100 µM in each case. For the same compound, in [12], the TGI was greater than 100 µM.
As to `O=C(/C=C/c1ccsc1)c1cccs1`, the concentration for total growth inhibition (TGI) in assay [1] was greater than 100 µM; in assay [2], 48 µM; in [4], greater than 100 µM; in assay [5], 34.7 µM; in [6] it was 35.1 µM; in assay [13] it was greater than 100 µM. Moreover, the TGI in assay [14] is greater than 100 µM; in [7] it was greater than 100 µM; in assay [8], 68 µM; in assay [9] it was greater than 100 µM; in assay [10] it was 54.3 µM; in [11], 81.2 µM. Also, the total growth inhibition concentration (TGI) in assay [12] was greater than 100 µM.
With `O=c1[nH]nc(Cc2ccccc2)n1N=C1CCCCC1`, the TGI in [1], in assay [2], in assay [3], in [4], in assay [6] and in [13] was greater than 100 µM in each case. Also, the concentration for total growth inhibition (TGI) in [14], in [7], in assay [8], in [9], in assay [10] and in assay [11] was greater than 100 µM each time. In [12], the TGI was greater than 100 µM.
As for `CCCCCCCCCCCCOCCCCCCCCC/C=C/c1ccc2c(c1)OCCOCCOCCOCCO2`, the TGI was greater than 100 µM in assay [1]; 40.6 µM in [2]; 64.5 µM in [3]; 26.6 µM in assay [4]; 44.7 µM in assay [5]; 31.1 µM in [6]. For the same compound, the concentration for total growth inhibition (TGI) was 36.7 µM in [13]; 50.6 µM in [14]; greater than 100 µM in [7]; 30.9 µM in assay [8]; 47.3 µM in assay [9]; 48.2 µM in assay [10]. In assay [11], this compound returned a total growth inhibition concentration (TGI) of 48.2 µM.
